Experimental data as given in paper PMC8954523 (Pharmaceutics, 2022).

Assay: Dissolution and solvation thermodynamic functions (van't Hoff; solubility minus sublimation)
Format: physicochemical
Procedure: The dissolution thermodynamic parameters on the standard state were determined using mole fraction unitary units. […] Since the resulting solutions are very dilute, and their densities are very close to those of the pure solvents. The density values of the pure solvents were used in calculations (Table S1). […] The temperature dependences of the experimental solubility were treated mathematically by the van't Hoff equation, and the apparent solution enthalpies ΔHsol0 were determined as follows:(3) ∂(lnX2)/∂T=ΔHsol0/RT^2 […] Next, the apparent solution entropies ΔSsol0 were derived by the equation:(5) ΔGsol0=ΔHso[…] The solvation of one mole of the solute molecules in the solvent can be defined as the total change of the standard thermodynamic functions ( ΔGsolv0 , ΔHsolv0 , ΔSsolv0 ) of the compound upon transferring it from the gaseous phase (ideal gas; single molecules without interaction) into the solvent. The transfer process can be presented as the difference between the dissolution and sublimation thermodynamic functions by:(6) ΔYsolv0=ΔYso[…] where ΔY^0 is the standard change of any of the thermodynamic functions (ΔG^0, ΔH^0, ΔS^0) of solvation ( ΔYsolv0 ), dissolution ( ΔYsol0 ) or sublimation ( ΔYsubo ).

[1] = Table S6, n-hexane, all studied temperatures
[2] = Table S6, water, all studied temperatures

## CC(O)(CS(=O)(=O)c1ccc(F)cc1)C(=O)Nc1ccc(C#N)c(C(F)(F)F)c1 (stereo not shown) [BCL, bicalutamide]
Table S6, n-hexane, 293.15 K
  ζTSsolv: 37.96%
Table S6, n-hexane, 298.15 K
  TΔSsol0: 3.59 kcal/mol
  ΔGsol0: 8.174 kcal/mol
  ΔSsol0: 50.70 J∙mol-1·K-1
  ζHsolv: 62.20%
  −TΔSsolv0: 10.97 kcal/mol
  −ΔSsolv0: 153.88 J∙mol-1·K-1
Table S6, n-hexane, 303.15 K
  TΔSsol0: 3.681 kcal/mol
  ΔGsol0: 8.078 kcal/mol
  ΔSsol0: 50.81 J∙mol-1·K-1
  ζTSsolv: 37.65%
  −ΔSsolv0: 150.42 J∙mol-1·K-1
Table S6, n-hexane, 308.15 K
  TΔSsol0: 3.738 kcal/mol
  ΔGsol0: 8.021 kcal/mol
  ΔSsol0: 50.75 J∙mol-1·K-1
  ζTSsolv: 37.53%
  −TΔSsolv0: 10.84 kcal/mol
  −ΔGsolv0: 7.204 kcal/mol
  −ΔSsolv0: 147.20 J∙mol-1·K-1
Table S6, n-hexane, 313.15 K
  TΔSsol0: 3.793 kcal/mol
  ΔGsol0: 7.966 kcal/mol
  ζTSsolv: 37.41%
  −TΔSsolv0: 10.79 kcal/mol
  −ΔGsolv0: 7.259 kcal/mol
Table S6, n-hexane, 318.15 K
  TΔSsol0: 3.841 kcal/mol
  ΔGsol0: 7.918 kcal/mol
  ΔSsol0: 50.50 J∙mol-1·K-1
  ζHsolv: 62.69%
  −TΔSsolv0: 10.74 kcal/mol
  −ΔGsolv0: 7.306 kcal/mol
  −ΔSsolv0: 141.22 J∙mol-1·K-1
[1]
  ΔHsol0: 11.8 kcal/mol
  −ΔHsolv0: 18 kcal/mol
Table S6, water, 293.15 K
  ζHsolv: 58.17%
Table S6, water, 298.15 K
  ζHsolv: 58.17%
  −ΔSsolv0: 211.97 J∙mol-1·K-1
Table S6, water, 303.15 K
  ζHsolv: 58.17%
Table S6, water, 308.15 K
  ζHsolv: 58.13%
  −TΔSsolv0: 15.13 kcal/mol
  −ΔGsolv0: 5.877 kcal/mol
  −ΔSsolv0: 205.45 J∙mol-1·K-1
Table S6, water, 313.15 K
  ζHsolv: 58.12%
  −TΔSsolv0: 15.14 kcal/mol
  −ΔGsolv0: 5.872 kcal/mol
[2]
  ΔHsol0: 8.8 kcal/mol
  −ΔHsolv0: 21 kcal/mol
ethanol, 298.15 K
  TΔSsol0: 3.04 kcal/mol
  ΔGsol0: 3.87 kcal/mol
  ΔHsol0: 6.91 ± 0.22 kcal/mol
  ΔSsol0: 42.6 ± 5.1 J∙mol^−1·K^−1
  ζHsolv: 66.5%
  ζTSsolv: 33.5%
  −TΔSsolv0: 11.5 kcal/mol
  −ΔGsolv0: 11.4 kcal/mol
  −ΔHsolv0: 22.9 kcal/mol
  −ΔSsolv0: 162.0 J∙mol^−1·K^−1
n-hexane, 298.15 K
  TΔSsol0: 3.59 kcal/mol
  ΔGsol0: 8.17 kcal/mol
  ΔHsol0: 11.8 ± 0.17 kcal/mol
  ΔSsol0: 50.3 ± 3.4 J∙mol^−1·K^−1
  ζHsolv: 62.1%
  ζTSsolv: 37.9%
  −TΔSsolv0: 11 kcal/mol
  −ΔGsolv0: 7.05 kcal/mol
  −ΔHsolv0: 18 kcal/mol
  −ΔSsolv0: 154.3 J∙mol^−1·K^−1
water, 298.15 K
  TΔSsol0: -0.526 kcal/mol
  ΔGsol0: 9.32 kcal/mol
  ΔHsol0: 8.8 ± 0.14 kcal/mol
  ΔSsol0: −7.4 ± 0.3 J∙mol^−1·K^−1
  ζHsolv: 58.2%
  ζTSsolv: 41.8%
  −TΔSsolv0: 15.1 kcal/mol
  −ΔGsolv0: 5.9 kcal/mol
  −ΔHsolv0: 21 kcal/mol
  −ΔSsolv0: 212.0 J∙mol^−1·K^−1
